Laboratory results taken from US7538241B2, “Hsp90 family protein inhibitors” (Kyowa Hakko Kogyo Co., Ltd., priority 2003, dated 2009).

System: human mammary cancer-derived KPL-4 cells
Test: Cell growth inhibition test with KPL-4 cells (WST-1)
Format: cell-based
Settings: KPL4, 72 hours, read-out: 50% growth inhibition concentration (GI50)
Procedure: In a 96-well plate (Nunc), human mammary cancer-derived KPL-4 cells were sown in an amount of 2000 cells/well, and pre-incubated in 10% fetal calf serum (FCS)-containing Dulbecco Modified Eagle Medium (DMEM) (incubation medium) in a 5% carbon dioxide incubator at 37° C. for 24 hours. A dimethylsulfoxide (DMSO) solution of a test compound controlled at 10 mmol/L was stepwise diluted with the incubation medium, and added to each well in a total amount of 100 μL/well, and incubated in the 5% carbon dioxide incubator at 37° C. for 72 hours. After the incubation, WST-1 {4-[3-(4-Iodophenyl)-2-(4-nitrophenyl)-2H-5-tetrazolio]-1,3-benzene disulfonate}-labeled mixture (Rosh Diagnostic) diluted 2-fold with the incubation medium was added thereto in an amount of 20 μL/well, and incubated in the 5% carbon dioxide incubator at 37° C. for 1 hour. Using a microplate spectrophotometer (Biorad's Model 550), the absorbance at 450 nm and 655 nm of each well was measured. The cell growth inhibition activity of the test compound was indicated by the 50% growth inhibition concentration (GI50) thereof. A method of calculating GI50 is described. The absorbance at 655 nm of each well was subtracted from the absorbance at 450 nm thereof to give a value (absorbance difference). The absorbance difference obtained with the cells without being treated with the test compound was taken as 100%, and this was compared with the absorbance difference obtained with the cells treated with the test compound to give the concentration of the compound for 50% cell growth inhibition, and this is referred to as GI50.

GI50, ≤ 50 µM:
CCc1c(O)cc(O)c(-c2ccccc2)c1CC(O)CO (stereo not drawn) [Compound 182, 6-Ethyl-5-(2,3-dihydroxypropyl)-4-phenylbenzene-1,3-diol]
C=CCOCCc1c(CC)c(O)cc(O)c1-c1ccccc1 [Compound 144, 5-(2-Allyloxyethyl)-6-ethyl-4-phenylbenzene-1,3-diol]
CCc1c(O)cc(O)c(-c2ccccc2)c1CCOCc1cccnc1 [Compound 188, 6-Ethyl-4-phenyl-5-[2-(pyridin-3-ylmethoxy)ethyl]benzene-1,3-diol]
COC(=O)Cc1cc(O)cc(O)c1-c1cccc(OC)c1 [Compound 81, Methyl 3,5-dihydroxy-2-(3-methoxyphenyl)phenylacetate]
Oc1cc(O)c(-c2ccccc2)c(CCOCC2CCCO2)c1Br (stereo not drawn) [Compound 109, 6-Bromo-5-[2-(oxolan-2-ylmethoxy)ethyl]-4-phenylbenzene-1,3-diol]
Oc1cc(O)c(-c2ccccc2)c(C2OCCO2)c1Br [Compound 112, 6-Bromo-5-(1,3-dioxolan-2-yl)-4-phenylbenzene-1,3-diol]
CN(C)C(=O)Cc1c(Br)c(O)cc(O)c1-c1ccccc1 [Compound 43, 2-(2-Bromo-3,5-dihydroxy-6-phenylphenyl)-N,N-dimethylacetamide]
CCc1cc(-c2n[nH]c3ccc([N+](=O)[O-])cc23)c(O)cc1O [Compound 277, 6-Ethyl-4-(5-nitro-1H-indazol-3-yl)benzene-1,3-diol]
CCc1c(O)cc(O)c(-c2ccccc2)c1CCOCCCOC [Compound 176, 6-Ethyl-5-[2-(3-methoxypropoxy)ethyl]-4-phenylbenzene-1,3-diol]
COCCc1c(CC(C)=O)c(O)cc(O)c1-c1ccccc1 [Compound 94, 1-[2,4-Dihydroxy-6-(2-methoxyethyl)-5-phenylphenyl]propanone]
OCCOCCc1c(Br)c(O)cc(O)c1-c1ccccc1 [Compound 110, 6-Bromo-5-[2-(2-hydroxyethoxy)ethyl]-4-phenylbenzene-1,3-diol]
COC(=O)Cc1cc(O)cc(O)c1-c1cccc(C#N)c1 [Compound 78, Methyl 2-(3-cyanophenyl)-3,5-dihydroxyphenylacetate]
COc1ccccc1N1CCN(C(=O)Cc2c(Br)c(O)cc(O)c2-c2ccccc2)CC1 [Compound 88, 2-(2-Bromo-3,5-dihydroxy-6-phenylphenyl)-1-[4-(2-methoxyphenyl)piperazin-1-yl]ethanone]
COC(=O)CCc1ccc(-c2c(O)cc(O)cc2CC(=O)OC)o1 [Compound 260, Methyl 3-{5-[2,4-dihydroxy-6-(methoxycarbonylmethyl)phenyl]furan-2-yl}propanoate]
COC(=O)CCc1ccc(-c2c(O)cc(O)cc2C(OC)c2ccccc2)o1 (stereo not drawn) [Compound 237, Methyl 3-{5-[2,4-dihydroxy-6-(1-methoxy-1-phenylmethyl)phenyl]furan-2-yl}propanoate]
COC(=O)C=Cc1c(Br)c(O)cc(O)c1-c1ccccc1 [Compound 59, Methyl 3-(2-bromo-3,5-dihydroxy-6-phenylphenyl)acrylate]
COC(=O)Cc1cc(O)cc(O)c1-c1ccccc1 [Compound 1, Methyl 3,5-dihydroxy-2-phenylphenylacetate]
CCc1c(O)cc(O)c(-c2cccc(OCCO)c2)c1CCOCC(O)CO (stereo not drawn) [Compound 194, 5-[2-(2,3-Dihydroxypropoxy)ethyl]-6-ethyl-4-[3-(2-hydroxyethoxy)phenyl]benzene-1,3-diol]
CCc1c(O)cc(O)c(-c2n[nH]c3cc(OC)ccc23)c1CCOCC(O)CO (stereo not drawn) [Compound 330, 5-[2-(2,3-Dihydroxypropoxy)ethyl]-6-ethyl-4-(6-methoxy-1H-indazol-3-yl)benzene-1,3-diol]
COCCc1c(CC(C)C)c(O)cc(O)c1-c1ccccc1 [Compound 96, 6-Isobutyl-5-(2-methoxyethyl)-4-phenylbenzene-1,3-diol]
COC(=O)Cc1c(I)c(O)cc(O)c1-c1ccccc1 [Compound 13, Methyl 3,5-dihydroxy-2-iodo-6-phenylphenylacetate]
COCCc1c(Br)c(O)cc(O)c1-c1ccco1 [Compound 243, 6-Bromo-4-(furan-2-yl)-5-(2-methoxyethyl)benzene-1,3-diol]
CCc1c(O)cc(O)c(-c2cccc(CCC(C)=O)c2)c1CCOCCOC [Compound 153, 4-(3-{5-Ethyl-2,4-dihydroxy-6-[2-(2-methoxyethoxy)ethyl]phenyl}phenyl)butan-2-one]
COC(=O)Cc1cc(O)cc(O)c1-c1cccc([N+](=O)[O-])c1 [Compound 77, Methyl 3,5-dihydroxy-2-(3-nitrophenyl)phenylacetate]
CCCc1c(O)cc(O)c(-c2ccccc2)c1CCOC [Compound 95, 5-(2-Methoxyethyl)-4-phenyl-6-propylbenzene-1,3-diol]
CCc1c(O)cc(O)c(-c2ccccc2)c1CCCOCC(N)=O [Compound 158, 2-[3-(2-Ethyl-3,5-dihydroxy-6-phenylphenyl)propoxy]acetamide]
CCN(CC)C(=O)Cc1c(Br)c(O)cc(O)c1-c1ccco1 [Compound 241, 2-[2-Bromo-6-(furan-2-yl)-3,5-dihydroxyphenyl]-N,N-diethylacetamide]
COC(=O)Cc1cc(O)cc(O)c1-c1ccc(OC(F)(F)F)cc1 [Compound 75, Methyl 3,5-dihydroxy-2-[4-(trifluoromethoxy)phenyl]phenylacetate]
COC(=O)Cc1cc(O)cc(O)c1-c1ccc2c(c1)OCO2 [Compound 273, Methyl 2-(1,3-benzodioxolan-5-yl)-3,5-dihydroxyphenylacetate]
COc1cccc(-c2c(O)cc(O)c(Br)c2CC(C)=NO)c1 [Compound 107, 6-Bromo-5-[2-(hydroxyimino)propyl]-4-(3-methoxyphenyl)benzene-1,3-diol]
COC(=O)Cc1cc(O)cc(O)c1-c1cccc(C(C)=O)c1 [Compound 8, Methyl 2-(3-acetylphenyl)-3,5-dihydroxyphenylacetate]
COC(=O)Cc1cc(O)cc(O)c1-c1ccc(-c2ccccc2)cc1 [Compound 79, Methyl 3,5-dihydroxy-2-(4-phenylphenyl)phenylacetate]
CCc1c(O)cc(O)c(-c2ncc(-c3ccccc3)o2)c1CC(=O)OC [Compound 329, Methyl 2-ethyl-3,5-dihydroxy-6-(5-phenyl-1,3-oxazol-2-yl)phenylacetate]
COCCOCCOCc1c(Br)c(O)cc(O)c1-c1ccccc1 [Compound 72, 6-Bromo-5-[2-(2-methoxyethoxy)ethoxymethyl]-4-phenylbenzene-1,3-diol]
CCc1c(O)cc(O)c(-c2ccco2)c1CC(=O)N(C)CCOC [Compound 257, 2-[2-Ethyl-6-(furan-2-yl)-3,5-dihydroxyphenyl]-N-(2-methoxyethyl)-N-methylacetamide]
CC(O)CCc1c(Br)c(O)cc(O)c1-c1ccccc1 (stereo not drawn) [Compound 115, 5-(3-Hydroxybutyl)-6-bromo-4-phenylbenzene-1,3-diol]
CCc1c(O)cc(O)c(-c2ccccc2)c1CCCOCC(=O)NCCOC [Compound 168, 2-[3-(2-Ethyl-3,5-dihydroxy-6-phenylphenyl)propoxy]-N-(2-methoxyethyl)acetamide]
Oc1cc(O)c(-c2ccccc2)c(COCC2CCCO2)c1Br (stereo not drawn) [Compound 85, 6-Bromo-5-[(oxolan-2-ylmethoxy)methyl]-4-phenylbenzene-1,3-diol]
CCc1c(O)cc(O)c(-c2ccccc2)c1CCOCC(O)COCCO (stereo not drawn) [Compound 179, 6-Ethyl-5-{2-[2-hydroxy-3-(2-hydroxyethoxy)propoxy]ethyl}-4-phenylbenzene-1,3-diol]
CC(=O)C=Cc1c(Br)c(O)cc(O)c1-c1ccccc1 [Compound 60, 4-(2-Bromo-3,5-dihydroxy-6-phenylphenyl)but-3-en-2-one]
O=C(Cc1c(Br)c(O)cc(O)c1-c1ccccc1)NCc1ccncc1 [Compound 54, 2-(2-Bromo-3,5-dihydroxy-6-phenylphenyl)-N-(pyridin-4-ylmethyl)acetamide]
COC(=O)Cc1c(C=O)c(O)cc(O)c1-c1ccccc1 [Compound 55, Methyl 2-formyl-3,5-dihydroxy-6-phenylphenylacetate]
